From patent publication US4521335A, “Aglycone and pseudo-aglycones of the AAD 216 antibiotics” (SmithKline Beckman Corporation, priority 1984, dated 1985) come the findings set out here.

Test [1] has as its system inoculum (rumen cannula filtrate). Put plainly: rumen in vitro model, growth promotant activity. The note with it: for GLU (% Control): glucose; for Propionate % (% Control): propionate as percentage of total VFA; for VFA (% Control): total volatile fatty acids; for LYS (% Control): lysine.
Test [2] deals with inoculum (ileal or cecal cannula filtrate). The test is described as follows: swine in vitro model, growth promotant activity. The note with it: 5 hours, 37° C.; for GLU (% Control): glucose; for LAC (% Control): lactic acid; for LYS (% Control): lysine; for VFA (% Control): total volatile fatty acids.

With `CC[C@@]1([C@H]2O[C@H]([C@H]3O[C@@](O)(CO)[C@H](C)C[C@@H]3C)C[C@H]2C)CC[C@H]([C@@]2(C)CC[C@]3(C[C@H](O)[C@@H](C)[C@@H]([C@H](C)[C@H](OC)[C@@H](C)C(=O)O)O3)O2)O1` [Monensin Sodium], in test [1] (experiment III, 0.5 ppm), the “GLU (% Control)” value is 11 % Control, the “Propionate % (% Control)” value is 119 % Control and the “VFA (% Control)” value is on record as 94 % Control. In addition, in test [1] (experiment III, 5.0 ppm), the “GLU (% Control)” value was found to be 126 % Control, the “LYS (% Control)” value is reported as 141 % Control, the “Propionate % (% Control)” value worked out at 149 % Control and the “VFA (% Control)” value came to 104 % Control. For the same molecule, in test [1] (experiment III, 50.0 ppm), the “GLU (% Control)” value is on record as 0 % Control, the “LYS (% Control)” value worked out at 147 % Control and the “Propionate % (% Control)” value came to 156 % Control. Further, in test [1] (experiment IV, 5.0 ppm), the “LYS (% Control)” value is reported as 595 % Control, the “Propionate % (% Control)” value was 161 % Control and the “VFA (% Control)” value is 106 % Control.

Turning to Virginiamycin, the “GLU (% Control)” value in test [2] (experiment I, 1.67 ppm) is listed as 182 % Control; in test [2] (experiment I, 16.67 ppm), 191 % Control; in test [2] (experiment I, 166.67 ppm), 197 % Control; in test [2] (experiment II, 1.67 ppm) it was 837 % Control. Also, the “LAC (% Control)” value came to 70 % Control in test [2] (experiment I, 1.67 ppm); 76 % Control in test [2] (experiment I, 16.67 ppm); 81 % Control in test [2] (experiment I, 166.67 ppm); 21 % Control in test [2] (experiment II, 1.67 ppm). Moreover, the “LYS (% Control)” value in test [2] (experiment I, 1.67 ppm) amounted to 82 % Control; in test [2] (experiment I, 16.67 ppm) it was 127 % Control; in test [2] (experiment I, 166.67 ppm) it was 163 % Control; in test [2] (experiment II, 1.67 ppm), 96 % Control. In addition, the “VFA (% Control)” value stood at 93 % Control in test [2] (experiment I, 166.67 ppm) and 240 % Control in test [2] (experiment II, 1.67 ppm).

Turning to avoparcin, in test [2] (experiment II, 1.67 ppm), the “GLU (% Control)” value is 115 % Control, the “LAC (% Control)” value is 102 % Control and the “LYS (% Control)” value is reported as 101 % Control.
